According to BigSolDB 2.1:

O=C(NNC(=S)Nc1ccc(Cl)cc1)c1ccncc1
solubility (mole fraction) (in transcutol, 298.15 K): 0.0423
solubility (mole fraction) (in transcutol, 308.15 K): 0.0468
solubility (mole fraction) (in transcutol, 318.15 K): 0.0514
solubility (mole fraction) (in transcutol, 328.15 K): 0.0565
solubility (mole fraction) (in transcutol, 338.15 K): 0.0607
solubility (mole fraction) (in water, 298.15 K): 5.17e-07
solubility (mole fraction) (in water, 308.15 K): 5.93e-07
solubility (mole fraction) (in water, 318.15 K): 7.05e-07
solubility (mole fraction) (in water, 328.15 K): 8.28e-07
solubility (mole fraction) (in water, 338.15 K): 9.75e-07
